Experimental data taken from ChEMBL document CHEMBL1155983, “Synthesis of novel [1,2]-diamines with antituberculosis activity” (Bioorg Med Chem Lett, 2009).
Values after ≈ are worked out from the molar mass of the structure shown.

Tested on: Mycobacterium tuberculosis
Assay: Antituberculosis activity against Mycobacterium tuberculosis H37Rv by microbroth dilution assay
Format: functional
Details: not given

Row | SMILES | MIC
1 | COC12CC3CC(CC(C3)C1NCCNC/C=C(\C)CCC=C(C)C)C2 (centres undefined) | 0.5 µM (≈ 0.18 µg/mL)
2 | CC(C)=CCC/C(C)=C/C(Cc1ccc(F)cc1)NCCNC1C2CC3CC(C2)CC1C3 (centres undefined) | 3 µM (≈ 1.32 µg/mL)
3 | CC(C)=CCC/C(C)=C/C(Cc1ccccc1)NCCNC1C2CC3CC(C2)CC1C3 (centres undefined) | 1 µM (≈ 0.421 µg/mL)
4 | CC(C)=CCC/C(C)=C/CNCCNC1C2CC3CC(C2)CC1(F)C3 (centres undefined) | 0.3 µM (≈ 0.105 µg/mL)
5 | CC(C)=CCC/C(C)=C/C(C)NCCNC1C2CC3CC(C2)CC1C3 (centres undefined) | 1.2 µM (≈ 0.414 µg/mL)
6 | CC(C)=CCC/C(C)=C/CNCCNC1C2CC3CC1CC(F)(C3)C2 (centres undefined) | 0.6 µM (≈ 0.209 µg/mL)
7 | CC(C)=CCC/C(C)=C/CNCCNC1C2CC3CC(C2)CC1C3.Cl.Cl (centres undefined) | 0.6 µM
8 | CCC(/C=C(\C)CCC=C(C)C)NCCNC1C2CC3CC(C2)CC1C3 (centres undefined) | 1.2 µM (≈ 0.43 µg/mL)
9 | CC(C)=CCC/C(C)=C/C(Cc1ccc(OC(F)(F)F)cc1)NCCNC1C2CC3CC(C2)CC1C3 (centres undefined) | 5.2 µM (≈ 2.62 µg/mL)
10 | CC(C)=CCC/C(C)=C/CNCCNC1C2CC3CC(C2)CC1(O)C3 (centres undefined) | 0.6 µM (≈ 0.208 µg/mL)
11 | CC(C)=CCC/C(C)=C/CNCCNC1C2CC3CC1CC(O)(C3)C2 (centres undefined) | 8.6 µM (≈ 2.98 µg/mL)
12 | COC12CC3CC(C1)C(NCCNC/C=C(\C)CCC=C(C)C)C(C3)C2 (centres undefined) | 1.7 µM (≈ 0.613 µg/mL)

Tested on: not listed separately
Assay: Oral bioavailability in dog
Format: ADME, organism-based, Canis lupus familiaris
Details: in vivo

Row | SMILES | bioavailability
13 | CC(C)=CCC/C(C)=C/CNCCNC1C2CC3CC(C2)CC1C3.Cl.Cl (centres undefined) | 3.8%

Tested on: not listed separately
Assay: Oral bioavailability in rat
Format: ADME, organism-based
Details: in vivo

Row | SMILES | bioavailability
14 | CC(C)=CCC/C(C)=C/CNCCNC1C2CC3CC(C2)CC1C3.Cl.Cl (centres undefined) | 12%
